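Where inhibition never reached the appropriate level, the endpoint shown equals the highest concentration tested. Otherwise, values were interpolated linearly from a five-concentration, 48-hour dose response in 96-well plates. GI50 marks 50% less growth. TGI denotes the concentration required for complete inhibition of growth.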
Tests used:
Experiment in all cases: inhibition of tumour cell growth, NCI panel, 48 h
786-0 renal = test system: 786-0 renal
A498 renal = test system: A498 renal
A549 NSCLC = test system: A549 NSCLC
ACHN renal = test system: ACHN renal
BT-549 breast = test system: BT-549 breast
CAKI-1 renal = test system: CAKI-1 renal
CCRF-CEM leukemia = test system: CCRF-CEM leukemia
COLO 205 colon = test system: COLO 205 colon
DU-145 prostate = test system: DU-145 prostate
EKVX NSCLC = test system: EKVX NSCLC
HCC-2998 colon = test system: HCC-2998 colon
HCT-116 colon = test system: HCT-116 colon
HCT-15 colon = test system: HCT-15 colon
HL-60(TB) leukemia = test system: HL-60(TB) leukemia
HOP-62 NSCLC = test system: HOP-62 NSCLC
HOP-92 NSCLC = test system: HOP-92 NSCLC
HS 578T breast = test system: HS 578T breast
HT29 colon = test system: HT29 colon
K-562 leukemia = test system: K-562 leukemia
KM12 colon = test system: KM12 colon
LOX IMVI melanoma = test system: LOX IMVI melanoma
M14 melanoma = test system: M14 melanoma
MALME-3M melanoma = test system: MALME-3M melanoma
MCF7 breast = test system: MCF7 breast
MDA-MB-231 breast = test system: MDA-MB-231 breast
MDA-MB-435 = test system: MDA-MB-435
MOLT-4 leukemia = test system: MOLT-4 leukemia
NCI-H226 lung = test system: NCI-H226 lung
NCI-H23 lung = test system: NCI-H23 lung
NCI-H460 lung = test system: NCI-H460 lung
NCI-H522 lung = test system: NCI-H522 lung
NCI/ADR-RES ovarian = test system: NCI/ADR-RES ovarian
OVCAR-3 ovarian = test system: OVCAR-3 ovarian
OVCAR-4 ovarian = test system: OVCAR-4 ovarian
OVCAR-5 ovarian = test system: OVCAR-5 ovarian
OVCAR-8 ovarian = test system: OVCAR-8 ovarian
PC-3 prostate = test system: PC-3 prostate
RPMI-8226 leukemia = test system: RPMI-8226 leukemia
RXF 393 renal = test system: RXF 393 renal
SF-268 CNS = test system: SF-268 CNS
SF-295 CNS = test system: SF-295 CNS
SF-539 CNS = test system: SF-539 CNS
SK-MEL-2 melanoma = test system: SK-MEL-2 melanoma
SK-MEL-28 melanoma = test system: SK-MEL-28 melanoma
SK-MEL-5 melanoma = test system: SK-MEL-5 melanoma
SK-OV-3 ovarian = test system: SK-OV-3 ovarian
SN12C renal = test system: SN12C renal
SNB-19 CNS = test system: SNB-19 CNS
SNB-75 CNS = test system: SNB-75 CNS
SW-620 colon = test system: SW-620 colon
T-47D breast = test system: T-47D breast
TK-10 renal = test system: TK-10 renal
U251 CNS = test system: U251 CNS
UACC-257 melanoma = test system: UACC-257 melanoma
UACC-62 melanoma = test system: UACC-62 melanoma
UO-31 renal = test system: UO-31 renal
IGROV1 ovarian = test system: IGROV1 ovarian
SR leukemia = test system: SR leukemia

## COc1ccc2c3c(c4ccccc4cc13)C(=O)N(CCN(C)CCN)C2=O
786-0 renal
  GI50: 0.0388 µM
  TGI: 0.7 µM
A498 renal
  GI50: 0.393 µM
  TGI: 1.73 µM
A549 NSCLC
  GI50: 0.0113 µM
  TGI: 0.243 µM
ACHN renal
  GI50: 0.0187 µM
  TGI: 0.17 µM
BT-549 breast
  GI50: 0.329 µM
  TGI: 1.84 µM
CAKI-1 renal
  GI50: 0.0541 µM
  TGI: 2.82 µM
CCRF-CEM leukemia
  GI50: 0.021 µM
  TGI: 0.22 µM
COLO 205 colon
  GI50: 0.0843 µM
  TGI: 1.27 µM
DU-145 prostate
  GI50: 0.0663 µM
  TGI: 1.04 µM
EKVX NSCLC
  GI50: 0.538 µM
  TGI: 2.06 µM
HCC-2998 colon
  GI50: 0.182 µM
  TGI: 1.65 µM
HCT-116 colon
  GI50: 0.0312 µM
  TGI: 1.17 µM
HCT-15 colon
  GI50: 0.0453 µM
  TGI: 1.01 µM
HL-60(TB) leukemia
  GI50: 0.0272 µM
  TGI: 0.361 µM
HOP-62 NSCLC
  GI50: 0.0267 µM
  TGI: 0.264 µM
HOP-92 NSCLC
  GI50: 0.114 µM
  TGI: 0.896 µM
HS 578T breast
  GI50: 1.19 µM
  TGI: 3.67 µM
HT29 colon
  GI50: 0.114 µM
  TGI: 1.13 µM
K-562 leukemia
  GI50: 0.204 µM
  TGI: 1.32 µM
KM12 colon
  GI50: 0.171 µM
  TGI: 1.28 µM
LOX IMVI melanoma
  GI50: 0.0446 µM
  TGI: 0.381 µM
M14 melanoma
  GI50: 0.0599 µM
  TGI: 1.32 µM
MALME-3M melanoma
  GI50: 0.0799 µM
  TGI: 1.27 µM
MCF7 breast
  GI50: 0.0133 µM
  TGI: 1.1 µM
MDA-MB-231 breast
  GI50: 0.518 µM
  TGI: 1.94 µM
MDA-MB-435
  GI50: 0.343 µM
  TGI: 1.71 µM
MOLT-4 leukemia
  TGI: 0.301 µM
NCI-H226 lung
  GI50: 0.145 µM
  TGI: 0.383 µM
NCI-H23 lung
  GI50: 0.0902 µM
  TGI: 1.28 µM
NCI-H460 lung
  GI50: 0.0129 µM
  TGI: 0.323 µM
NCI-H522 lung
  GI50: 0.0742 µM
  TGI: 1.23 µM
NCI/ADR-RES ovarian
  GI50: 0.116 µM
  TGI: 1.65 µM
OVCAR-3 ovarian
  GI50: 0.257 µM
  TGI: 1.19 µM
OVCAR-4 ovarian
  GI50: 0.299 µM
  TGI: 1.7 µM
OVCAR-5 ovarian
  GI50: 0.293 µM
  TGI: 1.54 µM
OVCAR-8 ovarian
  GI50: 0.107 µM
  TGI: 1.61 µM
PC-3 prostate
  GI50: 0.338 µM
  TGI: 1.93 µM
RPMI-8226 leukemia
  GI50: 0.166 µM
  TGI: 0.75 µM
RXF 393 renal
  GI50: 0.259 µM
  TGI: 1.29 µM
SF-268 CNS
  GI50: 0.106 µM
  TGI: 1.49 µM
SF-295 CNS
  GI50: 0.0437 µM
  TGI: 1.03 µM
SF-539 CNS
  GI50: 0.186 µM
  TGI: 1.35 µM
SK-MEL-2 melanoma
  GI50: 0.887 µM
  TGI: 18.5 µM
SK-MEL-28 melanoma
  GI50: 1.09 µM
  TGI: 2.48 µM
SK-MEL-5 melanoma
  GI50: 0.186 µM
  TGI: 1.28 µM
SK-OV-3 ovarian
  GI50: 0.0692 µM
  TGI: 0.806 µM
SN12C renal
  GI50: 0.0562 µM
  TGI: 0.911 µM
SNB-19 CNS
  GI50: 0.0692 µM
  TGI: 1.27 µM
SNB-75 CNS
  GI50: 0.166 µM
  TGI: 1.37 µM
SW-620 colon
  GI50: 0.0515 µM
  TGI: 1.32 µM
T-47D breast
  GI50: 0.0877 µM
  TGI: 12.6 µM
TK-10 renal
  GI50: 0.13 µM
  TGI: 1.31 µM
U251 CNS
  GI50: 0.0776 µM
  TGI: 1.21 µM
UACC-257 melanoma
  GI50: 0.483 µM
  TGI: 17.4 µM
UACC-62 melanoma
  GI50: 0.077 µM
  TGI: 1.56 µM
UO-31 renal
  GI50: 0.065 µM
  TGI: 1.35 µM

## O=C1c2cc(-c3ccccc3)ccc2-c2c1c1ccc([N+](=O)[O-])cc1c(=O)n2CCCBr
786-0 renal
  GI50: > 31.7 µM
  TGI: > 50 µM
A498 renal
  GI50: 32.5 µM
  TGI: > 50 µM
A549 NSCLC
  GI50: > 50 µM
  TGI: > 50 µM
ACHN renal
  GI50: > 36.3 µM
  TGI: > 50 µM
BT-549 breast
  GI50: > 50 µM
  TGI: > 50 µM
CAKI-1 renal
  GI50: > 50 µM
  TGI: > 50 µM
CCRF-CEM leukemia
  GI50: 0.16 µM
  TGI: 0.6 µM
COLO 205 colon
  GI50: > 50 µM
  TGI: > 50 µM
DU-145 prostate
  GI50: > 50 µM
  TGI: > 50 µM
EKVX NSCLC
  GI50: > 50 µM
  TGI: > 50 µM
HCC-2998 colon
  GI50: > 50 µM
  TGI: > 50 µM
HCT-116 colon
  GI50: > 50 µM
  TGI: > 50 µM
HCT-15 colon
  GI50: > 50 µM
  TGI: > 50 µM
HOP-62 NSCLC
  GI50: > 30.2 µM
  TGI: > 50 µM
HOP-92 NSCLC
  GI50: 17.8 µM
  TGI: > 50 µM
HS 578T breast
  GI50: 10.5 µM
  TGI: > 40.7 µM
HT29 colon
  GI50: > 50 µM
  TGI: > 50 µM
IGROV1 ovarian
  GI50: > 50 µM
  TGI: > 50 µM
K-562 leukemia
  TGI: > 12.2 µM
KM12 colon
  GI50: > 50 µM
  TGI: > 50 µM
LOX IMVI melanoma
  GI50: > 50 µM
  TGI: > 50 µM
M14 melanoma
  GI50: > 50 µM
  TGI: > 50 µM
MALME-3M melanoma
  TGI: > 43.4 µM
MCF7 breast
  GI50: > 46.4 µM
  TGI: > 50 µM
MDA-MB-231 breast
  GI50: > 38.9 µM
  TGI: > 50 µM
MDA-MB-435
  GI50: > 50 µM
  TGI: > 50 µM
MOLT-4 leukemia
  GI50: > 50 µM
  TGI: > 50 µM
NCI-H226 lung
  GI50: > 47.4 µM
  TGI: > 50 µM
NCI-H23 lung
  GI50: > 50 µM
  TGI: > 50 µM
NCI-H460 lung
  GI50: > 50 µM
  TGI: > 50 µM
NCI-H522 lung
  GI50: > 50 µM
  TGI: > 50 µM
NCI/ADR-RES ovarian
  GI50: > 50 µM
  TGI: > 50 µM
OVCAR-3 ovarian
  GI50: > 50 µM
  TGI: > 50 µM
OVCAR-4 ovarian
  GI50: > 50 µM
  TGI: > 50 µM
OVCAR-5 ovarian
  GI50: > 50 µM
  TGI: > 50 µM
OVCAR-8 ovarian
  GI50: > 50 µM
  TGI: > 50 µM
PC-3 prostate
  GI50: > 50 µM
  TGI: > 50 µM
RPMI-8226 leukemia
  GI50: > 32.8 µM
  TGI: > 50 µM
RXF 393 renal
  GI50: > 26.3 µM
  TGI: > 43.7 µM
SF-268 CNS
  GI50: > 35.4 µM
  TGI: > 50 µM
SF-295 CNS
  GI50: > 37.4 µM
  TGI: > 50 µM
SF-539 CNS
  GI50: > 28.7 µM
  TGI: > 50 µM
SK-MEL-2 melanoma
  GI50: > 50 µM
  TGI: > 50 µM
SK-MEL-28 melanoma
  GI50: > 50 µM
  TGI: > 50 µM
SK-MEL-5 melanoma
  GI50: > 50 µM
  TGI: > 50 µM
SK-OV-3 ovarian
  GI50: 33.1 µM
  TGI: > 50 µM
SN12C renal
  GI50: > 50 µM
  TGI: > 50 µM
SNB-19 CNS
  GI50: > 36.8 µM
  TGI: > 50 µM
SNB-75 CNS
  GI50: 15.1 µM
  TGI: > 26.2 µM
SR leukemia
  TGI: > 15.1 µM
SW-620 colon
  GI50: > 50 µM
  TGI: > 50 µM
T-47D breast
  GI50: > 50 µM
  TGI: > 50 µM
TK-10 renal
  GI50: 17.5 µM
  TGI: > 50 µM
U251 CNS
  GI50: > 31.9 µM
  TGI: > 50 µM
UACC-257 melanoma
  GI50: > 50 µM
  TGI: > 50 µM
UACC-62 melanoma
  GI50: 49.4 µM
  TGI: > 50 µM
UO-31 renal
  GI50: > 50 µM
  TGI: > 50 µM
